Measurements reported in ChEMBL document CHEMBL2034833, “Synthesis of chalcone-amidobenzothiazole conjugates as antimitotic and apoptotic inducing agents” (Bioorg Med Chem, 2012).
Calls of active or inactive are those of the source. The calls are words filed in the database; no cut-off is given here.

Target: Tubulin (Homo sapiens) (UniProt P68371+Q9H4B7+P0DPH7+P68366+Q13509+Q71U36+P04350+Q3ZCM7+P07437+P68363+Q9BQE3+Q6PEY2+Q13885+Q9BVA1+Q9BUF5)
Test: Inhibition of tubulin polymerization in human A549 cells assessed as disrupted microtubule organization at 2 uM after 48 hrs by immunohistochemistry analysis
Type: cell-based

`COc1ccc(/C=C/C(=O)c2cc(OC)c(OC)c(OC)c2)cc1OCC(=O)Nc1nc2ccccc2s1` was tested, and the inhibition was “Active”.
